Data reported in US9487489B2, “Halogen-substituted pyrazole derivatives as pest-control agents” (BAYER CROPSCIENCE AKTIENGESELLSCHAFT, priority 2013, dated 2016).

Tests used:
[1] = test system: L1 larvae of the Australian sheep blowfly (Lucilia cuprina); experiment: Lucilia cuprina test (LUCICU); type: in vivo; conditions: application rate 100 ppm; after 2 days
Protocol: E. Lucilia cuprina Test (LUCICU)
(§1) Solvent: dimethyl sulphoxide
(§2) To produce a suitable preparation of active compound, 10 mg of active compound are mixed with 0.5 ml of dimethyl sulphoxide, and the concentrate is diluted with water to the desired concentration.
About 20 L1 larvae of the Australian sheep blowfly (Lucilia cuprina) are transferred into a test vessel containing minced horsemeat and the active compound preparation of the desired concentration.
After 2 days, the kill in % is determined 100% means that all of the larvae have been killed; 0% means that none of the larvae have been killed.

[2] = test system: larvae of the mustard beetle (Phaedon cochleariae); experiment: Phaedon cochleariae spray test (PHAECO); type: in vivo; conditions: Chinese cabbage leaf discs, after 7 days
Outline: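 Compound dissolved in acetone/dimethylformamide with alkylaryl polyglycol ether emulsifier, made up in water containing 1000 ppm emulsifier, then diluted to test concentrations and sprayed against mustard beetle larvae. Efficacy (% larvae killed) scored after 7 days.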

[3] = test system: adult houseflies (Musca domestica); experiment: Musca domestica test (MUSCDO); type: in vivo; conditions: application rate 100 ppm; after 2 days
Protocol: F. Musca domestica Test (MUSCDO)
as §1, §2
Vessels containing a sponge treated with sugar solution and the active compound preparation of the desired concentration are populated with 10 adult houseflies (Musca domestica).
After 2 days, the kill in % is determined. 100% means that all of the flies have been killed; 0% means that none of the flies have been killed.

[4] = logP determination by HPLC on a reversed-phase column (C18), EEC Directive 79/831 Annex V.A8; type: physicochemical
Outline: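 Retention on a C18 reversed-phase column (Zorbax Eclipse Plus, 1.8 micron) was used, eluting with acetonitrile/water, each containing formic acid. The gradient ran from 10% to 95% acetonitrile over 4.25 min, then held 1.25 min, at 55° C and 2.0 ml/min, with MS detection.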

[5] = test system: engorged adult female cattle ticks (Boophilus microplus); experiment: Boophilus microplus injection test (BOOPMI Inj); type: in vivo; conditions: application rate 20 μg/animal; injection into abdomen; assessed after 7 days
Protocol: C. Boophilus microplus-injection Test (BOOPMI Inj)
as §1
To produce a suitable preparation of active compound, 10 mg of active compound are mixed with 0.5 ml of solvent, and the concentrate is diluted with solvent to the desired concentration.
1 μl of the active compound solution is injected into the abdomen of 5 engorged adult female cattle ticks (Boophilus microplus). The animals are transferred into dishes and kept in a climate-controlled room.
The activity is assessed after 7 days by laying of fertile eggs. Eggs whose fertility is not visible from the outside are stored in a climate-controlled cabinet until the larvae hatch after about 42 days. An efficacy of 100% means that none of the ticks has laid any fertile eggs; 0% means that all eggs are fertile.

[6] = test system: adult cat fleas (Ctenocephalides felis); experiment: Ctenocephalides felis oral test (CTECFE); type: in vivo; conditions: application rate 100 ppm in citrated cattle blood; after 2 days
Protocol: D. Ctenocephalides felis-oral Test (CTECFE)
as §1
To produce a suitable preparation of active compound, 10 mg of active compound are mixed with 0.5 ml of dimethyl sulphoxide. Dilution with citrated cattle blood gives the desired concentration.
About 20 unfed adult cat fleas (Ctenocephalides felis) are placed into a chamber which is closed at the top and bottom with gauze. A metal cylinder whose bottom end is closed with a parafilm is placed onto the chamber. The cylinder contains the blood/active ingredient preparation, which can be imbibed by the fleas through the parafilm membrane.
After 2 days, the kill in % is determined 100% means that all of the fleas have been killed; 0% means that none of the fleas have been killed.

[7] = test system: caterpillars of the armyworm (Spodoptera frugiperda); experiment: Spodoptera frugiperda spray test (SPODFR); type: in vivo; conditions: maize leaf discs, after 7 days
Outline: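 Maize leaf discs sprayed with compound in acetone/DMF with alkylaryl polyglycol ether emulsifier (1000 ppm) in water, dried, then infested with armyworm caterpillars. Mortality (%) scored after 7 days; 100% = all caterpillars killed, 0% = none killed.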

[8] = test system: greenhouse red spider mite (Tetranychus urticae); experiment: Tetranychus urticae spray test, OP-resistant (TETRUR); type: in vivo; conditions: bean leaf discs, after 6 days
Outline: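 Bean leaf discs carrying all stages of OP-resistant Tetranychus urticae were sprayed with compound formulated in acetone/dimethylformamide and diluted in water with 1000 ppm alkylaryl polyglycol ether emulsifier. Mortality (% efficacy, 100% = all mites killed) scored after 6 days.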

[9] = test system: adult cat fleas (Ctenocephalides felis); experiment: Ctenocephalides felis in vitro contact test with adult cat fleas (T1); conditions: after 48 h
Outline: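 Test compound was dissolved in acetone p.a. (9 mg per 1 ml) and diluted as needed. 250 μl was spread evenly over the inner walls and floor of a 25 ml test tube by rotating on an orbital shaker for 2 h at 30 rpm. Once the solvent evaporated, 5-10 adult Ctenocephalides felis were added. Tubes were capped with a perforated plastic lid and kept horizontal at room temperature and ambient humidity.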

[10] = test system: adult dog ticks (Rhipicephalus sanguineus); experiment: Rhipicephalus sanguineus in vitro contact test with adult brown dog ticks (T2); conditions: after 48 h
Protocol: T2. Rhipicephalus sanguineus-in vitro Contact Tests with Adult Brown Dog Ticks
For the coating of the test tubes, initially 9 mg of active compound are dissolved in 1 ml of acetone p.a. and then diluted with acetone p.a. to the desired concentration. By turning and rocking on an orbital shaker (2 h of rocking rotation at 30 rpm), 250 μl of the solution are distributed homogeneously on the internal walls and the floor of a 25 ml test tube. At 900 ppm active compound solution and 44.7 cm^2 internal surface, an area dose of 5 μg/cm^2 is achieved for homogeneous distribution.
After evaporation of the solvent, the tubes are populated with 5-10 adult dog ticks (Rhipicephalus sanguineus), sealed with a perforated plastic lid and incubated in a horizontal position in the dark at room temperature and ambient humidity. After 48 h, the efficacy is determined. To this end, the ticks are knocked to the floor of the tube and incubated on a hotplate at 45-50° C. for at most 5 min Ticks which remain motionless on the floor or move in an uncoordinated manner such that they are not able to deliberately avoid the heat by climbing upwards are considered to be dead or moribund.
An efficacy of 100% means that all ticks were dead or moribund. 0% efficacy means that none of the ticks had been damaged.

[11] = HPLC on reversed-phase column (C18), acetonitrile/water with formic acid, EEC Directive 79/831 Annex V.A8

Row | Compound | efficacy (kill in %) [1] [%] | efficacy in % ([2]; application rate 100 g/ha) [%] | efficacy (kill in %) [3] [%] | logP [4, 11] | efficacy (laying of fertile eggs) [5] [%] | efficacy (kill in %) [6] [%] | efficacy in % ([7]; application rate 100 g/ha) [%] | efficacy in % ([2]; application rate 500 g/ha) [%] | efficacy in % ([7]; application rate 500 g/ha) [%] | efficacy in % ([8]; application rate 500 g/ha) [%] | logP ([4]; HPLC, reversed-phase C18, acetonitrile (0.1% formic acid)/water (0.09% formic acid) gradient) | efficacy (dead or moribund fleas) ([9]; application rate 1 μg/cm^2) [%] | efficacy (dead or moribund fleas) ([9]; application rate 5 μg/cm^2) [%] | efficacy (dead or moribund ticks) ([10]; application rate 1 μg/cm^2) [%] | efficacy (dead or moribund ticks) ([10]; application rate 5 μg/cm^2) [%] | efficacy in % ([8]; application rate 100 g/ha) [%]
1 | O=C(NC1CC1)c1cc(-c2cnn(-c3c(C(F)(F)F)c(C(F)(F)C(F)(F)F)nn3-c3ccccc3)c2)ccc1Cl [Ic-6] | 100 | 100 | 90 | 4.54 | 100 | 100 | 100 | – | – | – | – | – | – | – | – | –
2 | Cn1nc(C(F)(F)C(F)(F)F)c(C(F)(F)F)c1-n1cc(-c2cccc(C(=O)NC3CC3)c2F)cn1 [Ic-33] | 100 | – | 100 | – | 100 | 100 | – | 100 | 83 | – | – | – | – | – | – | –
3 | Cn1nc(C(F)(F)C(F)(F)F)c(C(F)(F)F)c1-n1cc(-c2ccnc(C(=O)NC3(C#N)CC3)c2)cn1 [Ic-76] | 100 | – | 80 | – | 100 | 100 | – | 100 | 100 | 80 | – | – | – | – | – | –
4 | Cc1ccc(C(=O)NC2CC2)cc1-c1cnn(-c2c(C(F)(F)F)c(C(F)(F)C(F)(F)F)nn2C)c1 [Ic-57] | 100 | 83 | 100 | – | – | 100 | – | – | – | – | – | – | – | – | – | –
5 | Cn1nc(C(F)(F)C(F)(F)F)c(C(F)(F)F)c1-n1ccc(-c2ccc(Cl)c(C(=O)NC3(C#N)CC3)c2)n1 [Id-1] | 100 | 100 | 100 | – | 100 | 100 | 100 | – | – | – | 3.87 | – | – | – | – | –
6 | Cn1nc(C(F)(F)C(F)(F)F)c(C(F)(F)F)c1-n1cc(-c2cc(C(=O)NC3(C#N)CC3)cc(C(F)(F)F)c2)cn1 [Ic-60] | 100 | – | 100 | – | 100 | 100 | – | 100 | 100 | – | – | – | – | – | – | –
7 | N#CC1(NC(=O)c2cc(-c3cnn(-c4c(C(F)(F)F)c(C(F)(F)C(F)(F)F)nn4-c4ccccc4)c3)ccc2Cl)CC1 [Ic-7] | 100 | 100 | 100 | 4.43 | 100 | 100 | 100 | – | – | – | – | – | – | – | – | –
8 | Cc1nn(-c2c(C(F)(F)F)c(C(F)(F)C(F)(F)F)nn2C)cc1-c1ccc(Cl)c(C(=O)NC2CC2)c1 [Ic-12] | 100 | 100 | 100 | 3.97 | 100 | 100 | 100 | – | – | – | – | 100 | 100 | – | – | –
9 | Cc1cc(C(=O)NC2CC2)cc(-c2cnn(-c3c(C(F)(F)F)c(C(F)(F)C(F)(F)F)nn3C)c2)c1 [Ic-54] | 100 | – | – | – | 100 | 100 | – | 100 | – | – | – | – | – | 100 | 100 | –
10 | COc1cc(C(=O)NC2CC2)cc(-c2cnn(-c3c(C(F)(F)F)c(C(F)(F)C(F)(F)F)nn3C)c2)c1 [Ic-62] | 100 | – | 100 | – | 100 | 95 | – | 100 | 100 | – | – | – | – | – | – | –
11 | Cn1nc(C(F)(F)C(F)(F)F)c(C(F)(F)F)c1-n1cc(-c2ccc(Cl)c(C(=O)NCc3cccs3)c2)cn1 [Ic-10] | 100 | 100 | – | 4.40 | 100 | 98 | 100 | – | – | – | – | – | – | – | – | 100
12 | Cn1nc(C(F)(F)C(F)(F)F)c(C(F)(F)F)c1-n1cc(-c2cc(C(=O)NC3(C#N)CC3)ccc2Cl)cn1 [Ic-45] | 100 | – | 100 | – | – | 100 | – | 100 | 100 | – | – | – | – | – | – | –
13 | Cc1ccc(C(=O)NC2(C#N)CC2)cc1-c1cnn(-c2c(C(F)(F)F)c(C(F)(F)C(F)(F)F)nn2C)c1 [Ic-58] | 100 | – | 80 | – | 100 | 100 | – | 100 | – | – | – | – | – | – | – | –
14 | Cn1nc(C(F)(F)C(F)(F)F)c(C(F)(F)F)c1-n1cc(-c2ccc(Cl)c(C(=O)Nc3ccncc3)c2)cn1 [Ic-22] | 100 | 100 | – | 2.38 | 100 | 100 | 100 | – | – | – | – | – | – | – | – | 100
15 | Cc1c(-c2ccc(Cl)c(C(=O)NC3CC3)c2)cnn1-c1c(C(F)(F)F)c(C(F)(F)C(F)(F)F)nn1C [Ic-13] | 100 | 100 | – | 3.88 | 100 | 100 | 100 | – | – | – | – | – | – | – | – | 90
16 | Cn1nc(C(F)(F)C(F)(F)F)c(C(F)(F)F)c1-n1cc(-c2cccc(C(=O)NCc3ccccc3)c2)cn1 [Ic-17] | 100 | 100 | – | 4.31 | 100 | 90 | 100 | – | – | – | – | – | – | – | – | 100
17 | Cn1nc(C(F)(F)C(F)(F)F)c(C(F)(F)F)c1-n1cc(-c2cc(F)cc(C(=O)NC3(C#N)CC3)c2)cn1 [Ic-38] | 100 | – | 100 | – | 100 | 100 | – | 100 | 100 | – | – | – | – | – | – | –
